Measurements as given in patent US9115358B2, “Moenomycin biosynthesis-related compositions and methods of use thereof” (priority 2006, dated 2015).
Entries after “also recorded” stand apart in the source; their conditions may differ.

Key:
[1] = test system: B. cereus; assay: Antibiotic disc diffusion assay of antibacterial activity against B. cereus; type: cell-based, Bacillus cereus ATCC19637; conditions: purified moe A intermediates on B. cereus reporter strain; FIG. 19, 50-200 nM per disc
Experimental: Spots 1 and 2—moe A (100 and 10 nM per disc, respectively); 3—compound 15 (100 nM); 4—compound 16 (100 nM), 5—compound 17 (100 nM), 6—compound 24 (100 nM), 7—mixture of compounds 22 and 23 (200 nM), 8—compound 11 (100 nM), 9—mixture of compounds 22 and 23 (50 nM), 10—mixture of compounds 2 and 3 (200 nM), 11—compound 1 (200 nM), 12—extract from 5 g S. lividans TK24 mycelial cake.
Moes producers S. ghanaensis ATCC14672 and S. bambergiensis NRRL-B12101 were obtained from American Type Culture Collection (“ATCC”) and the U.S. Department of Agriculture, respectively. S. lividans TK24, S. coelicolor M145 (Kieser 2000), S. cyanogenus S136 (Westrich 1999) were used in studies on moe A resistance in Streptomyces. Bacillus cereus ATCC19637 was used as a moe-sensitive test culture.
For all moe production analysis procedures, equal amounts of biomass (wet weight) and fermentation medium were used. […]
Heterologous expression of moe biosynthetic genes in S. lividans TK24 leads to the production of moe derivatives and intermediates. […] Antibiotic disc diffusion assay, LC-MS, MS/MS and determination of accurate mass spectra of moenomycins were carried out as described in (Ostash 2007). ^1H NMR spectra of compound 11 (FIG. 4) were recorded on a Varian Inova 500 (500 MHz) instrument in D2O (4.80 ppm). […]

[2] = test system: bacteria; conditions: cited from earlier work

Compound	antibacterial activity (bioactivity) in disk diffusion assay [1]	activity in vivo (biological / antibacterial activity) [2]
C=C(C/C=C(\C)CCC=C(C)C)CCC(C)(C)/C=C/CC/C(C)=C\CO[C@H](COP(=O)(O)OC1OC(C(N)=O)C(C)(O)C(OC(N)=O)C1OC1OC(COC2OC(CO)C(O)C(O)C2O)C(O)C(O)C1NC(C)=O)C(=O)O (some centres unmarked) [Compound 11]	has biological activity; also recorded: biologically active	–
Neryl-moenomycin	–	biologically inactive
